Reference: PubChem BioAssay (NCI)
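96-well plates; 48 h exposure; 5 concentrations. Endpoints by linear interpolation between flanking doses. Not reached: highest tested concentration assigned. GI50 = concentration required for 50% inhibition of growth. TGI is the concentration that stops growth completely.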

Columns and labels:
Test in all cases: NCI tumour cell line growth inhibition, 48 h
[1] = tested on: TK-10 renal
[2] = tested on: HCT-116 colon
[3] = tested on: OVCAR-8 ovarian
[4] = tested on: SR leukemia
[5] = tested on: SF-295 CNS
[6] = tested on: SNB-75 CNS
[7] = tested on: OVCAR-5 ovarian
[8] = tested on: EKVX NSCLC
[9] = tested on: SN12C renal
[10] = tested on: BT-549 breast
[11] = tested on: HT29 colon
[12] = tested on: RXF 393 renal
[13] = tested on: HOP-62 NSCLC
[14] = tested on: SK-OV-3 ovarian
[15] = tested on: IGROV1 ovarian
[16] = tested on: HS 578T breast
[17] = tested on: KM12 colon
[18] = tested on: NCI/ADR-RES ovarian
[19] = tested on: RPMI-8226 leukemia
[20] = tested on: A498 renal
[21] = tested on: NCI-H522 lung
[22] = tested on: MDA-MB-435
[23] = tested on: SK-MEL-2 melanoma
[24] = tested on: U251 CNS
[25] = tested on: SF-268 CNS
[26] = tested on: HOP-92 NSCLC
[27] = tested on: SW-620 colon
[28] = tested on: CCRF-CEM leukemia
[29] = tested on: MALME-3M melanoma
[30] = tested on: UACC-257 melanoma
[31] = tested on: MCF7 breast
[32] = tested on: ACHN renal
[33] = tested on: SF-539 CNS
[34] = tested on: OVCAR-4 ovarian
[35] = tested on: UO-31 renal
[36] = tested on: LOX IMVI melanoma
[37] = tested on: COLO 205 colon
[38] = tested on: MDA-MB-231 breast
[39] = tested on: DU-145 prostate
[40] = tested on: HCT-15 colon
[41] = tested on: HL-60(TB) leukemia
[42] = tested on: SK-MEL-5 melanoma
[43] = tested on: PC-3 prostate
[44] = tested on: K-562 leukemia
[45] = tested on: NCI-H23 lung
[46] = tested on: CAKI-1 renal
[47] = tested on: 786-0 renal
[48] = tested on: NCI-H226 lung
[49] = tested on: HCC-2998 colon
[50] = tested on: UACC-62 melanoma
[51] = tested on: MOLT-4 leukemia
[52] = tested on: SK-MEL-28 melanoma
[53] = tested on: OVCAR-3 ovarian
[54] = tested on: SNB-19 CNS
[55] = tested on: A549 NSCLC
[56] = tested on: T-47D breast
[57] = tested on: M14 melanoma
[58] = tested on: NCI-H460 lung

CN(C)c1cccc2[nH]c(-c3[nH]ncc3Nc3ccnc(N)n3)nc12
GI50 [1]: 39.9 nM
TGI [1]: 1010 nM
GI50 [2]: < 10 nM
TGI [2]: 1090 nM
GI50 [3]: 21.3 nM
TGI [3]: 1680 nM
GI50 [4]: < 10 nM
TGI [4]: 5470 nM
GI50 [5]: 17.2 nM
TGI [5]: 62.8 nM
GI50 [6]: < 10.8 nM
TGI [6]: 30.2 nM
GI50 [7]: 23 nM
TGI [7]: 1900 nM
GI50 [8]: 25.9 nM
TGI [8]: 998 nM
GI50 [9]: 23.3 nM
TGI [9]: 1100 nM
GI50 [10]: 16.5 nM
TGI [10]: 97.9 nM
GI50 [11]: 28.6 nM
TGI [11]: 638 nM
GI50 [12]: < 10 nM
TGI [12]: < 16.8 nM
GI50 [13]: 27.3 nM
TGI [13]: 629 nM
GI50 [14]: 73 nM
TGI [14]: 2380 nM
GI50 [15]: 20.1 nM
TGI [15]: 346 nM
GI50 [16]: < 15.6 nM
TGI [16]: 261 nM
GI50 [17]: 24 nM
TGI [17]: 283 nM
GI50 [18]: 32.8 nM
TGI [18]: 1500 nM
GI50 [19]: 281 nM
TGI [19]: 885 nM
GI50 [20]: 13 nM
TGI [20]: 37 nM
GI50 [21]: 22.1 nM
TGI [21]: 166 nM
GI50 [22]: 23.7 nM
TGI [22]: 719 nM
GI50 [23]: 21 nM
TGI [23]: 69.2 nM
GI50 [24]: < 11.9 nM
TGI [24]: 1330 nM
GI50 [25]: 17.9 nM
TGI [25]: 104 nM
GI50 [26]: 15.2 nM
TGI [26]: 60.3 nM
GI50 [27]: < 14.1 nM
TGI [27]: 1220 nM
GI50 [28]: < 11.8 nM
TGI [28]: 4480 nM
GI50 [29]: 35.9 nM
TGI [29]: 114 nM
GI50 [30]: 31.8 nM
TGI [30]: 324 nM
GI50 [31]: 20.6 nM
TGI [31]: 1150 nM
GI50 [32]: 16.5 nM
TGI [32]: 679 nM
GI50 [33]: < 11.8 nM
TGI [33]: 60.8 nM
GI50 [34]: 34.9 nM
TGI [34]: 706 nM
GI50 [35]: < 14.2 nM
TGI [35]: 276 nM
GI50 [36]: < 10 nM
TGI [36]: 140 nM
GI50 [37]: < 10 nM
TGI [37]: 83.7 nM
GI50 [38]: 23.3 nM
TGI [38]: 141 nM
GI50 [39]: 17.5 nM
TGI [39]: 1030 nM
GI50 [40]: 14.4 nM
TGI [40]: 1030 nM
GI50 [41]: < 14.1 nM
TGI [41]: 66.6 nM
GI50 [42]: 29.5 nM
TGI [42]: 150 nM
GI50 [43]: 14.7 nM
TGI [43]: 276 nM
GI50 [44]: 16.7 nM
TGI [44]: 1520 nM
GI50 [45]: 23.2 nM
TGI [45]: 217 nM
GI50 [46]: < 10 nM
TGI [46]: 1010 nM
GI50 [47]: 24.7 nM
TGI [47]: 1130 nM
GI50 [48]: < 15.9 nM
TGI [48]: 193 nM
GI50 [49]: 27.6 nM
TGI [49]: 488 nM
GI50 [50]: 13.6 nM
TGI [50]: 70.1 nM
GI50 [51]: 25.8 nM
TGI [51]: 10200 nM
GI50 [52]: 18.3 nM
TGI [52]: 452 nM
GI50 [53]: < 12.1 nM
TGI [53]: 1090 nM
GI50 [54]: 15.2 nM
TGI [54]: 1770 nM
GI50 [55]: 33.1 nM
TGI [55]: 1150 nM
GI50 [56]: 33.1 nM
TGI [56]: 2010 nM
GI50 [57]: 22.2 nM
TGI [57]: 81.2 nM
GI50 [58]: 54 nM
TGI [58]: 1050 nM
